Columns and labels:
[1] = molecular target: T1, VEGF-R2 kinase domain (Rattus norvegicus, UniProt O08775); test: VEGF-R2 screening assay (33P-ATP FlashPlate kinase assay); type: biochemical; settings: for IC50: 10 μM ATP; for inhibition at 100 µM: single test concentration 100 μM
T1 construct: polyhistidine (N)
Procedure: (§1) 70 μL of the kinase reaction mixture was dispensed into the well of a streptavidin coated FlashPlate™ (Cat. # SMP103, NEN, Boston, Mass.).
(§2) Test compound stock in 100% DMSO (1 μL) was added to the wells resulting in a final concentration of 1% DMSO in the reaction with a 100 μL final reaction volume. Each enzyme was diluted in 50 mM Tris-HCl pH=8.0, 0.1% BSA and 30 μL was added to each well to initiate the reaction. The reaction was incubated for one hour at 30° C. At the end of the 1 hr incubation, the reaction was terminated by aspirating the mixture from the plate and washing the wells twice with PBS containing 100 mM EDTA. The biotinylated peptide substrate became immobilized on the Flashplate™ and the incorporation of ^33P-γ-ATP was measured by reading the plate on a scintillation counter. Inhibition of the enzymatic activity was measured by observing a reduced amount of ^33P-γ-ATP incorporated into the immobilized peptide.
The assay used 150 ng of the N-terminal biotinylated peptide biotin-[…]-amide (VEGF-R2) per well.
(§3) A maximum and minimum signal for the assay was determined on each plate. The percent inhibition of a test compound was calculated according to the formula: [formula]

[2] = molecular target: T2, Aurora-A (Mus musculus, UniProt P97477); test: Aurora-A screening assay (33P-ATP FlashPlate kinase assay); type: biochemical, murine; settings: for IC50: 10 μM ATP; for inhibition at 100 µM: single test concentration 100 μM
T2 construct: followed by the full length protein encoding the murine Aurora-A; polyhistidine (N); made in house; host or cells: Sf9 insect cells
T2 sequence (P97477 1-395): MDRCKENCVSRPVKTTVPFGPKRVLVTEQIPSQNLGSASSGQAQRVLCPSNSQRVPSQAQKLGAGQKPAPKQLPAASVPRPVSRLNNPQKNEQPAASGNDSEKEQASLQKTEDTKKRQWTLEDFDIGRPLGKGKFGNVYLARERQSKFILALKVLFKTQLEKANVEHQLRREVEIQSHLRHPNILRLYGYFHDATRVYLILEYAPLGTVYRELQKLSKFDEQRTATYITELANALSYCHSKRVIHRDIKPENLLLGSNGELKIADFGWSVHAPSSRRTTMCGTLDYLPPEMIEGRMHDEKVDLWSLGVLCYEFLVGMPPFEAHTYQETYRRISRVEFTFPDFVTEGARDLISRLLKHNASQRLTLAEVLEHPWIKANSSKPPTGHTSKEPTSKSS
Procedure: as §1, §2
Aurora-A is a fusion protein containing a polyhistidine tag at the N terminus followed by the full length protein encoding the murine Aurora-A (Accession number GB BC014711) expressed and purified from sf9 insect cells. The assay used 400 ng of the N-terminal biotinylated peptide biotin-[…]-amide (Aurora-A) per well.
as §3

[3] = tested on: HCT-116 colon carcinoma; test: Cell proliferation inhibition assay (14C-thymidine incorporation), HCT116; type: cell-based; settings: Homo sapiens
Excerpt: (§4) The ability of a test compound to inhibit unregulated cell proliferation may be determined by measuring incorporation of ^14C-labelled thymidine into newly synthesized DNA within cell lines derived from carcinomas originating from several tissues. Accordingly, the effect of a test compound on proliferation of cells with a variety of phenotypes may be determined.
(§5) Carcinoma cell lines used include the HeLa cervical adenocarcinoma from the American Type Culture Collection (ATCC Cat. #CCL2), A375 malignant melanoma (ATCC Cat. #CRL-1619) and HCT-116 colon carcinoma (ATCC Cat. #CCL-247).
(§6) The carcinoma cells are trypsinized and counted. The cells (3000-8000 count) are added to each well of a 96-well CytoStar tissue culture treated scintillating microplate (Amersham #RPNQO160) in complete medium (100 μL) and the plate is then incubated in complete medium for 24 hrs at 37° C. in an inert atmosphere containing 5% CO2.
(§7) Test compound (1 μL) in 100% DMSO is added to the plate test-wells with DMSO only added to control-wells. The plate is incubated in complete medium for a second 24 hr period at 37° C. in an atmosphere containing 5% CO2.
(§8) An aliquot of a solution of Methyl ^14C-thymidine (56 mC/mmol) (NEN #NEC568 or Amersham #CFA532) and complete medium (20 uL to provide 0.2 μCi/well) is then added to each well and the plate is incubated for a third 24 hr period at 37° C. in an atmosphere containing 5% CO2.
(§9) The plate contents are then discarded, the plate is washed twice with PBS (200 μL) and then PBS (200 μL) is added to each well. The plate is sealed and the degree of methyl ^14C-thymidine incorporation is quantified on a Packard Top Count.
(§10) For a series of test concentrations, the IC50 was derived by graphing percent inhibition against the log of the concentrations tested for a given compound with results shown in Table 2.

[4] = tested on: HeLa cervical adenocarcinoma; test: Cell proliferation inhibition assay (14C-thymidine incorporation), HeLa; type: cell-based; settings: Homo sapiens
Excerpt: as §4, §5, §6, §7, §8, §9, §10

[5] = tested on: A375 malignant melanoma; test: Cell proliferation inhibition assay (14C-thymidine incorporation), A375; type: cell-based; settings: Homo sapiens, A-375
Excerpt: as §4, §5, §6, §7, §8, §9, §10

[6] = read-out: VEGF-R2 percent inhibition
[7] = read-out: Aurora-A percent inhibition

T1 sequence (O08775 786-1343): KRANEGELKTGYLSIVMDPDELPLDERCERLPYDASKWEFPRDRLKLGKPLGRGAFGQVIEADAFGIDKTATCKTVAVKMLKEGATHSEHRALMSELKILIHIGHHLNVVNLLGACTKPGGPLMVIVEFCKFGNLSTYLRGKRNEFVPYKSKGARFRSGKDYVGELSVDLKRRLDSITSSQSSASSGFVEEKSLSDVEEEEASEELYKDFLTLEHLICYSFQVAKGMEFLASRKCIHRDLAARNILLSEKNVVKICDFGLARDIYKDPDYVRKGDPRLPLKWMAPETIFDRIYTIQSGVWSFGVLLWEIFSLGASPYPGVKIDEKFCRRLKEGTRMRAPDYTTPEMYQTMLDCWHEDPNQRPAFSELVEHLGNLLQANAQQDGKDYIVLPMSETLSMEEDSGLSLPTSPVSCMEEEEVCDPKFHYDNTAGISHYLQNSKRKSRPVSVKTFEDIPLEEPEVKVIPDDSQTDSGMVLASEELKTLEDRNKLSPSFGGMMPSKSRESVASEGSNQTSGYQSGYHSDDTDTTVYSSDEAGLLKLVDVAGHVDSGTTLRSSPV

Compound | IC50 [1] | IC50 [2] | IC50 [3] | IC50 [4] | IC50 [5] | inhibition at 100 µM [1, 6] | inhibition at 100 µM [2, 7] | inhibition at 10 µM ([2]; single test concentration 10 μM, read-out: Aurora-A percent inhibition) | inhibition at 0.1 µM ([1]; single test concentration 0.1 μM, read-out: VEGF-R2 percent inhibition) | inhibition at 0.1 µM ([2]; single test concentration 0.1 μM, read-out: Aurora-A percent inhibition)
O=C1NCc2cccc(-c3cc4cc(OCc5ccccc5)ccc4[nH]3)c21 [Cpd 19, 7-(5-benzyloxy-1H-indol-2-yl)-2,3-dihydro-isoindol-1-one] | 11.3 µM | 21.2 µM |  |  |  |  |  |  |  | 
COc1ccc2[nH]c(-c3ccc(N)c4c3C(=O)NC4)cc2c1 [Cpd 17, 4-amino-7-(5-methoxy-1H-indol-2-yl)-2,3-dihydro-isoindol-1-one] | 0.0532 µM | 0.432 µM |  |  |  |  |  |  |  | 
O=C1NCc2cccc(-c3cc4cc(O)ccc4[nH]3)c21 [Cpd 4, 7-(5-hydroxy-1H-indol-2-yl)-2,3-dihydro-isoindol-1-one] | 0.119 µM | 0.09 µM | 6.09 µM | 3.64 µM | 4.85 µM |  |  |  |  | 
COc1ccc2[nH]c(-c3ccc(NC(C)=O)c4c3C(=O)NC4)cc2c1 [Cpd 18, N-[7-(5-methoxy-1H-indol-2-yl)-1-oxo-2,3-dihydro-1H-isoindol-4-yl]-acetamide] | > 100 µM |  |  |  |  |  | 64% |  |  | 
O=C1NCc2cccc(-c3cc4cc(OCCCN5CCCCC5)ccc4[nH]3)c21 [Cpd 9, 7-[5-(3-piperidin-1-yl-propoxy)-1H-indol-2-yl]-2,3-dihydro-isoindol-1-one] | 0.065 µM | 0.179 µM | 7.77 µM | 6.06 µM | 4.03 µM |  |  |  |  | 
O=C1NCc2cccc(-c3cc4cc(OCCCO)ccc4[nH]3)c21 [Cpd 5, 7-[5-(3-hydroxy-propoxy)-1H-indol-2-yl]-2,3-dihydro-isoindol-1-one] | 0.03 µM | 0.1 µM | 6.47 µM | 15 µM | 4.4 µM |  |  |  |  | 
O=C1NCc2cccc(-c3ccc[nH]3)c21 [Cpd 12, 7-(1H-pyrrol-2-yl)-2,3-dihydro-isoindol-1-one] | 1.1 µM | 0.338 µM | > 100 µM | 52.6 µM | > 10 µM |  |  |  |  | 
COc1ccc2[nH]c(-c3cccc4c3C(=O)NC4=O)cc2c1 [Cpd 22, 4-(5-methoxy-1H-indol-2-yl)-isoindole-1,3-dione] |  |  |  |  |  |  |  |  | 35% | 30%
COc1cc2c(c(-c3cc4cc(OC)ccc4[nH]3)c1)C(=O)NC2 [Cpd 6, 5-methoxy-7-(5-methoxy-1H-indol-2-yl)-2,3-dihydro-isoindol-1-one] | 0.103 µM | 0.1 µM | 4.28 µM | 5.08 µM | 3.02 µM |  |  |  |  | 
O=C1NCc2cccc(-c3cc4cc(OCCN5CCCCC5)ccc4[nH]3)c21 [Cpd 10, 7-[5-(2-piperidin-1-yl-ethoxy)-1H-indol-2-yl]-2,3-dihydro-isoindol-1-one] | 0.056 µM | 0.2 µM | 2.34 µM | 4.63 µM | 0.437 µM |  |  |  |  | 
CCN1CCN(CCCOc2ccc3[nH]c(-c4cccc5c4C(=O)NC5)cc3c2)CC1 [Cpd 1, 7-{5-[3-(4-ethyl-piperazin-1-yl)-propoxy]-1H-indol-2-yl}-2,3-dihydro-isoindol-1-one] | 0.014 µM | 0.044 µM | 3.85 µM | 5.31 µM | 3.9 µM |  |  |  |  | 
CN1Cc2cccc(-c3ccc[nH]3)c2C1=O [Cpd 25, 2-methyl-7-(1H-pyrrol-2-yl)-2,3-dihydro-isoindol-1-one] |  | > 100 µM |  |  |  | 37% |  |  |  | 
O=C1NCc2cccc(-c3cc4cc(OCCCN5CCC(CO)CC5)ccc4[nH]3)c21 [Cpd 2, 7-{5-[3-(4-hydroxymethyl-piperidin-1-yl)-propoxy]-1H-indol-2-yl}-2,3-dihydro-isoindol-1-one] | 0.018 µM | 0.061 µM | 2.26 µM | 3.35 µM | 0.763 µM |  |  |  |  | 
COc1ccc2[nH]c(-c3cccc4c3C(=O)NC4)cc2c1 [Cpd 3, 7-(5-methoxy-1H-indol-2-yl)-2,3-dihydro-isoindol-1-one] | 0.111 µM | 0.07 µM | > 100 µM | > 100 µM | > 100 µM |  |  |  |  | 
O=C1NCc2cccc(-c3c[nH]c4ccccc34)c21 [Cpd 20, 7-(1H-Indol-3-yl)-2,3-dihydro-isoindol-1-one] |  |  |  |  |  | 50% | 60% |  |  | 

The next lines start with the values.

IC50 [1] | IC50 [2] | IC50 [3] | IC50 [4] | IC50 [5] | inhibition at 100 µM [1, 6] | inhibition at 100 µM [2, 7] | inhibition at 10 µM ([2]; single test concentration 10 μM, read-out: Aurora-A percent inhibition) | inhibition at 0.1 µM ([1]; single test concentration 0.1 μM, read-out: VEGF-R2 percent inhibition) | inhibition at 0.1 µM ([2]; single test concentration 0.1 μM, read-out: Aurora-A percent inhibition) | Compound
1.52 µM | 0.27 µM | > 100 µM | 43 µM | > 100 µM |  |  |  |  |  | COc1ccc2c(c1)cc(-c1cccc3c1C(=O)NC3=O)n2C(=O)OC(C)(C)C [Cpd 21, 2-(1,3-dioxo-2,3-dihydro-1H-isoindol-4-yl)-5-methoxy-indole-1-carboxylic acid tert-butyl ester]
 |  | > 1 µM | 14.6 µM | 4.14 µM | 63% | 58% |  |  |  | CC(C)(C)OC(=O)n1c(-c2cccc3c2C(=O)NC3)cc2cc(OCCN3CCCCC3)ccc21 [Cpd 29, 2-(3-oxo-2,3-dihydro-1H-isoindol-4-yl)-5-(2-piperidin-1-yl-ethoxy)-indole-1-carboxylic acid tert-butyl ester]
 | 9.35 µM | > 10 µM | 34.8 µM | 34.4 µM | 62% |  |  |  |  | CC(C)(C)OC(=O)n1c(-c2cccc3c2C(=O)NC3)cc2cc(O)ccc21 [Cpd 28, 5-hydroxy-2-(3-oxo-2,3-dihydro-1H-isoindol-4-yl)-indole-1-carboxylic acid tert-butyl ester]
 |  | > 10 µM | 55.9 µM | > 10 µM | 57% |  | 48% |  |  | COc1ccc2c(c1)cc(-c1cccc3c1C(=O)NC3)n2C(=O)OC(C)(C)C [Cpd 27, 5-methoxy-2-(3-oxo-2,3-dihydro-1H-isoindol-4-yl)-indole-1-carboxylic acid tert-butyl ester]
 |  |  |  |  | 34% | 61% |  |  |  | CC(C)(C)OC(=O)n1c(-c2cccc3c2C(=O)NC3)cc2ccccc21 [Cpd 26, 2-(3-oxo-2,3-dihydro-1H-isoindol-4-yl)-indole-1-carboxylic acid tert-butyl ester]
1.52 µM | 0.27 µM |  |  |  |  |  |  |  |  | COc1ccc2c(c1)cc(-c1ccc([N+](=O)[O-])c3c1C(=O)NC3)n2C(=O)OC(C)(C)C [Cpd 15, 5-methoxy-2-(7-nitro-3-oxo-2,3-dihydro-1H-isoindol-4-yl)-indole-1-carboxylic acid tert-butyl ester]
0.144 µM | 0.1 µM | 5.04 µM | 3.71 µM | 5.56 µM |  |  |  |  |  | O=C1NCc2cccc(-c3cc4ccccc4[nH]3)c21 [Cpd 7, 7-(1H-indol-2-yl)-2,3-dihydro-isoindol-1-one]
 |  |  |  |  | 46% | 25% |  |  |  | CC(C)(C)OC(=O)n1cccc1-c1cccc2c1C(=O)NC2 [Cpd 23, 2-(3-oxo-2,3-dihydro-1H-isoindol-4-yl)-pyrrole-1-carboxylic acid tert-butyl ester]
